Test results: patent US20180153159A1, “FATTY NITRILE SOLVENTS FOR AGRICULTURAL FORMULATIONS” (priority 2015, published 2018)

How the values were obtained:
[1] = Solubility of various pesticides in alkyl nitrile; type: physicochemical
Source text: In Table 1, the designation of C14-18 represents the nitrile derived from tallow and C8-C16 represents the nitrile derived from coco. Note that the C14-C18 tallow nitrile corresponds to an R value of C13-C17 in Formula (I), because Formula (I) includes a carbon atom outside of the R group definition. Likewise, C8-C16 coco nitrile corresponds to an R value of C7-C15 in Formula (I). The C10 value in the first column of Table 1 corresponds to an R value of C9 in Formula (I) for the same reasons.

[2] = Appearance, flow and viscosity of (DMAPA) DDBS diluted with fatty nitrile; type: physicochemical
Source text: Dimethylaminopropylamine dodecylbenzene sulfonic acid (DMAPA-DDBS) is generally highly viscous. A low viscosity liquid sample of (DMAPA) DDBS was obtained by mixing 51.69 g of DDBS, 40 g tallow nitrile (fractionated), followed by slowly adding 8.31 g DMAPA.
A liquid sample of dimethylaminopropylamine (DMAPA) DDBS was obtained by mixing 43.08 g dodecylbenzene sulfonic (DDBS) acid, 25 g oleic nitrile, 25 g castor oil ethoxylate (10EO), followed by slowly adding 6.92 g DMAPA.

[3] = <10 g in 100 g C14-C18 (tallow) nitrile
[4] = in 100 g C10 nitrile, room temperature
[5] = in 100 g C14-C18 (tallow) nitrile
[6] = 0.1 g in 5 g C14-C18 (tallow) nitrile

Compound: CON=C(C(=O)OC)c1ccccc1CON=C(C)c1cccc(C(F)(F)F)c1 [Trifloxystrobin]
- Result (solubility in alkyl nitrile) [1, 3]: Dissolved
- Wt, g (pesticide dissolved) ([1]; in 50 g C10 nitrile + 50 g rapeseed methylester (solvent), room temperature): 14 g
- Wt, g (pesticide dissolved) [1, 4]: 19 g
- Wt, g (pesticide dissolved) [1, 5]: <10 g

Compound: CCOP(=S)(OCC)Oc1nc(Cl)c(Cl)cc1Cl [Chlorpyrifos]
- Result (solubility in alkyl nitrile) ([1]; 44 g in 100 g C14-C18 (tallow) nitrile): Dissolved
- Wt, g (pesticide dissolved) ([1]; in 20 g C10 nitrile + 80 g Solvesso 100 solvent, room temperature): 102 g
- Wt, g (pesticide dissolved) ([1]; in 20 g C10 nitrile + 80 g methyl ester solvent, room temperature): 87 g
- Wt, g (pesticide dissolved) ([1]; in 30 g C10 nitrile + 70 g methyl ester solvent, room temperature): 100 g
- Wt, g (pesticide dissolved) ([1]; in 35 g C10 nitrile + 65 g Solvesso 100 solvent, room temperature): 103 g
- Wt, g (pesticide dissolved) ([1]; in 40 g C10 nitrile + 60 g methyl ester solvent, room temperature): 166 g
- Wt, g (pesticide dissolved) ([1]; in 50 g C10 nitrile + 50 g Solvesso 100 solvent, room temperature): 102 g
- Wt, g (pesticide dissolved) [1, 4]: 84 g
- Wt, g (pesticide dissolved) [1, 5]: 44 g
- amount the C10 nitrile can dissolve ([1]; in C10 nitrile (Arneel 10D)): about 46%

Compound: Pyritherin
- Result (solubility in alkyl nitrile) ([1]; 3.15 g in 5 g C14-C18 (tallow) nitrile): Clear

Compound: CC(C)(C)C(O)(CCc1ccc(Cl)cc1)Cn1cncn1 (stereo not drawn) [Tebuconazole]
- Result (solubility in alkyl nitrile) ([1]; 0.4 g in 5 g C14-C18 (tallow) nitrile): Hazy to clr
- Result (solubility in alkyl nitrile) [1, 3]: Dissolved
- Wt, g (pesticide dissolved) [1, 4]: <10 g
- Wt, g (pesticide dissolved) [1, 5]: <10 g

Compound: Dimethylaminopropylamine dodecylbenzene sulfonic acid [(DMAPA) DDBS]
- appearance, flow and viscosity of sample ([2]; 43.08 g DDBS acid, 25 g oleic nitrile, 25 g castor oil ethoxylate (10EO), 6.92 g DMAPA): clear, flowed at about 0° C., and had acceptable viscosity
- appearance, flow and viscosity of sample ([2]; 51.69 g DDBS, 40 g tallow nitrile (fractionated), 8.31 g DMAPA): clear, flowed freely at room temperature and had acceptable viscosity
- appearance, flow and viscosity of sample ([2]; oleic nitrile instead of tallow nitrile): flowed better at lower temperatures

Compound: O=C(O)CNCP(=O)(O)O [Glyphosate acid]
- Result (solubility in alkyl nitrile) [1, 6]: Solid at bottom

Compound: CNC.O=C(O)COc1ccc(Cl)cc1Cl [2,4-D DMA]
- Result (solubility in alkyl nitrile) [1, 6]: Solid at bottom

Compound: COc1cc(OC)nc(NC(=O)NS(=O)(=O)c2ncccc2C(=O)N(C)C)n1 [Nicosulfuron]
- Result (solubility in alkyl nitrile) ([1]; 0.114 g (92.22%) in 1 g C14-C18 (tallow) nitrile): Suspension

Compound: NC(N)=O [Urea]
- Result (solubility in alkyl nitrile) ([1]; 0.26 g in 1 g C14-C18 (tallow) nitrile): Doesn't dissolve
- solvency power of fatty nitrile towards the agrochemical ([1]; fatty nitrile as solvent): very little solvency power
